According to patent US6569832B1, “Inhibition of beta cell degeneration” (Novo Nordisk A/S, priority 1999, dated 2003):

What was measured:
beta-cells [1] = assay: volume fraction of beta-cells related to total pancreas volume in treated ZDF rats (point counting stereology); assay type: in vivo, male Zucker Diabetic Fatty fa/fa (ZDF) rat
Source text: (§1) The male Zucker Diabetic Fatty fa/fa (ZDF) rat is a model of Type 2 diabetes. The rats are insulin resistant but normoglycemic from birth and they develop diabetes from about week 7 to week 10 of age. During the transitional period, the animals go through a state of impaired glucose tolerance. Although the animals are hyperinsulinemic before diabetes onset and during the early stages of diabetes, they later lose glucose-stimulated insulin secretion and finally become almost completely insulinopenic.
We have studied the effects of Arg^34, Lys^26(N-ε-(γ-Glu(N-α-hexadecanoyl)))-GLP-1(7-37) therapy during a period of time when the animals would normally progress from having impaired glucose tolerance to having overt Type 2 diabetes. […]
Neighbor sections were stained for insulin and the combination of glucagon-somatostatin-pancreatic polypeptide for the measurement of the relative mass of islet beta-cells and nonbeta-cells. […] The nonbeta-cells were stained with a mixture of monoclonal mouse anti-glucagon+rabbit anti-somatostatin+rabbit anti-pancreatic polypeptide, detected by biotinylated swine anti-multible Ig's, avidin peroxidase, and developed with DAB and CuSO4 to give a dark brown stain. […]

neonatal rat islet cells = assay: cytokine-induced apoptosis in neonatal rat islet cells (annexin V-FITC/PI flow cytometry); assay type: cell-based
Procedure: Neonatal rats were sacrificed and pancreata were aseptically isolated. Islets of Langerhans were isolated by standard techniques. Intact islets were cultured in 6-well tissue culture plates at 750 islets/well (Nunc, Roskilde, Denmark) with or without 40 U/ml recombinant rat interleukin 1, 100 U/ml interferon-γ, and 100 U/ml tumor necrosis factor-α (all from Peprotech, London, UK) and the indicated doses of the GLP-1 derivative, Arg^34, Lys^26(N-ε-(γ-Glu(N-α-hexadecanoyl)))-GLP-1(7-37). After 24 hours of in vitro culture, single cell suspensions were obtained from the islets by gentle triturating in trypsin. After 2 rounds of washing, islet cells were reacted with annexin V-FITC and propedium iodide (PI) using a commercial staining kit according to the manufactures recommendations (Pharmingen, San Diego, Calif., USA). At the end of incubation the samples were analyzed by flow cytometry using a FACScalibur (Becton Dickinson, Mountain View, Calif., USA). Dead cells were excluded by gating on PI-negative cells, 25000 viable cells were acquired per sample. Data were analyzed using the CellQuest software (Becton Dickinson).

beta-cells [2] = assay: beta-cell proliferation rate (BrDU incorporation) in pancreas of treated ZDF rats; assay type: in vivo, male Zucker Diabetic Fatty fa/fa (ZDF) rat
Source text: as §1
We have studied the effects of Arg^34, Lys^26(N-ε-(γ-Glu(N-α-hexadecanoyl)))-GLP-1(7-37) therapy during a period of time when the animals would normally progress from having impaired glucose tolerance to having overt Type 2 diabetes. Three groups of male ZDF rats (Genetic Models Inc, Indianapolis, Ind., USA) were studied and dosed subcutaneously bi-daily with either vehicle (group A), 30 (group B) or 150 μg/kg (group C) of Arg^34, Lys^26(N-ε-(γ-Glu(N-α-hexadecanoyl)))-GLP-1(7-37), n=6 per group. Animals were between 7 and 8 weeks old when dosing was initiated, and fed glucose levels were not different between the groups before dosing began.
Bromodeoxyuridine (BrDU) is incorporated in newly synthesized DNA and thus will label replicating cells. Six hours before sacrifice the rats were given an injection of 100 mg BrDU/kg intraperitoneally. […]

Arg^34, Lys^26(N-ε-(γ-Glu(N-α-hexadecanoyl)))-GLP-1(7-37)
beta-cell fraction of the total pancreas compared to vehicle treated rats (beta-cells [1]; 30 ng/g for 6 weeks): significantly higher | beta-cell fraction of the total pancreas, further increase over the 30 ng/g dose (beta-cells [1]; 150 ng/g): no further increase | reduction in the cytokine-induced apoptosis (neonatal rat islet cells; 100 nM, 24 hours with interleukin 1 40 U/ml, interferon-γ 100 U/ml, tumor necrosis factor-α 100 U/ml): approximately 50% | block of cytokine-induced apoptosis in islet cells ex vivo (neonatal rat islet cells; 24 hour incubation with cytokine mix): able to block | effect of the compound itself on the level of islet cell apoptosis (neonatal rat islet cells; without cytokine mix, 24 hours): no effect | beta-cell proliferation at the dose where volume of beta-cells increased (beta-cells [2]; 30 ng/g): proliferation was not seen | fraction of beta-cells that had incorporated BrDU (percentage of BrDU positive beta-cells) (beta-cells [2]; subcutaneously bi-daily 30 or 150 μg/kg vs vehicle, n=6 per group, BrDU 6 hours before sacrifice): dose dependent increase
